Results as given in ChEMBL document CHEMBL4000244, “Probing A-form DNA: A fluorescent aminosugar probe and dual recognition by anthraquinone-neomycin conjugates” (Bioorg Med Chem, 2017).
Calls of active or inactive are those of the source. The rule behind the calls is not given here.

Legend:
[1] = Displacement of fluorescein-neomycin from d(G4C4)2 DNA at 200 nM by fluorescence assay
[2] = Displacement of fluorescein-neomycin from d(G4C4)2 DNA by Scatchard plot analysis
[3] = Displacement of thiazole orange from d(G4C4)2 DNA by Scatchard plot analysis
[4] = Displacement of fluorescein-neomycin from d(G4C4)2 DNA major groove by fluorescence titration assay
[5] = Binding affinity to d(G4C4)2 DNA major groove assessed as stabilization of A-from DNA conformation at drug:DNA molar ratio of 4:1 after 30 mins by CD spectroscopic method
[6] = Binding affinity to d(G4C4)2 DNA major groove assessed as stabilization of A-from DNA conformation by measuring induction of sharper band at 265 nanometer at drug:DNA molar ratio of 1:1 after 30 mins by CD spectroscopic method
[7] = Binding affinity to d(G4C4)2 DNA major groove assessed as stabilization of A-from DNA conformation at 0.05 to 1.5 equiv after 30 mins by fluorescein-neomycin probe based CD spectroscopic method
[8] = Binding affinity to d(G4C4)2 DNA major groove assessed as stabilization of A-from DNA conformation at 0.25 to 1.5 equiv after 30 mins by thiazole orange probe based CD spectroscopic method
[9] = Binding affinity to d(G4C4)2 DNA major groove assessed as stabilization of A-from DNA conformation after 30 mins by CD spectroscopic method

| Compound | inhibition [1] | Ka [2] [×10⁶ /M] | Ka [3] [×10⁶ /M] | other results |
| --- | --- | --- | --- | --- |
| NCC1O[C@H](O[C@H]2[C@@H](O)[C@H](O[C@@H]3[C@@H](O)[C@H](N)C[C@H](N)[C@H]3O[C@H]3O[C@H](CN)[C@@H](O)[C@H](O)[C@H]3N)O[C@@H]2CNC(=S)NCc2ccc3c(c2)C(=O)c2ccccc2C3=O)[C@H](N)[C@@H](O)[C@@H]1O (some centres undefined) | Active | 14.1 | 5.27 | IC50 [4]: 0.748 µM |
| NCC1O[C@H](O[C@H]2[C@@H](O)[C@H](O[C@@H]3[C@@H](O)[C@H](N)C[C@H](N)[C@H]3O[C@H]3O[C@H](CN)[C@@H](O)[C@H](O)[C@H]3N)O[C@@H]2CNC(=S)NCCCNC(=S)NCc2ccc3c(c2)C(=O)c2ccccc2C3=O)[C@H](N)[C@@H](O)[C@@H]1O (some centres undefined) | Active | – | – | – |
| CN1/C(=C/c2cc[n+](C)c3ccccc23)Sc2ccccc21 | – | – | – | Activity [5]: inactive |
| NCC1O[C@H](O[C@H]2[C@@H](O)[C@H](O[C@H]3[C@H](O)[C@@H](N)C[C@@H](N)[C@@H]3O[C@H]3O[C@H](CN)[C@@H](O)[C@H](O)[C@H]3N)O[C@@H]2CO)[C@H](N)[C@@H](O)[C@@H]1O (some centres undefined) | inactive | – | – | Activity [6]: Active |
| NCC1O[C@H](O[C@H]2[C@@H](O)[C@H](O[C@@H]3[C@@H](O)[C@H](N)C[C@H](N)[C@H]3O[C@H]3O[C@H](CN)[C@@H](O)[C@H](O)[C@H]3N)O[C@@H]2CSCCNC(=S)NCc2ccc3c(c2)C(=O)c2ccccc2C3=O)[C@H](N)[C@@H](O)[C@@H]1O (some centres undefined) | Active | 25.3 | 3.62 | Activity [7]: Active; Activity [8]: Active |
| NCC1O[C@H](O[C@H]2[C@@H](O)[C@H](O[C@@H]3[C@@H](O)[C@H](N)C[C@H](N)[C@H]3O[C@H]3O[C@H](CN)[C@@H](O)[C@H](O)[C@H]3N)O[C@@H]2CSCCNC(=S)NCCCCCCCCCCNC(=S)NCc2ccc3c(c2)C(=O)c2ccccc2C3=O)[C@H](N)[C@@H](O)[C@@H]1O (some centres undefined) | Active | – | – | – |
| NCC1O[C@H](O[C@H]2[C@@H](O)[C@H](O[C@@H]3[C@@H](O)[C@H](N)C[C@H](N)[C@H]3O[C@H]3O[C@H](CN)[C@@H](O)[C@H](O)[C@H]3N)O[C@@H]2CSCCNC(=S)NCCCOCCCCOCCCNC(=S)NCc2ccc3c(c2)C(=O)c2ccccc2C3=O)[C@H](N)[C@@H](O)[C@@H]1O (some centres undefined) | Active | 4.02 | 18.4 | – |
| NCC1O[C@H](O[C@H]2[C@@H](O)[C@H](O[C@@H]3[C@@H](O)[C@H](N)C[C@H](N)[C@H]3O[C@H]3O[C@H](CN)[C@@H](O)[C@H](O)[C@H]3N)O[C@@H]2CNC(=S)Nc2ccc3c(c2)C(=O)c2ccccc2C3=O)[C@H](N)[C@@H](O)[C@@H]1O (some centres undefined) | Active | – | – | – |
| NCC1O[C@H](O[C@H]2[C@@H](O)[C@H](O[C@@H]3[C@@H](O)[C@H](N)C[C@H](N)[C@H]3O[C@H]3O[C@H](CN)[C@@H](O)[C@H](O)[C@H]3N)O[C@@H]2CSCCNC(=S)NCCCNC(=S)NCc2ccc3c(c2)C(=O)c2ccccc2C3=O)[C@H](N)[C@@H](O)[C@@H]1O (some centres undefined) | Active | – | – | – |
| CCO | – | – | – | Activity [9]: Active |
| NCC1O[C@H](O[C@H]2[C@@H](O)[C@H](O[C@@H]3[C@@H](O)[C@H](N)C[C@H](N)[C@H]3O[C@H]3O[C@H](CN)[C@@H](O)[C@H](O)[C@H]3N)O[C@@H]2CSCCNC(=S)Nc2ccc3c(c2)C(=O)c2ccccc2C3=O)[C@H](N)[C@@H](O)[C@@H]1O (some centres undefined) | Active | – | – | – |
| NCC1O[C@H](O[C@H]2[C@@H](O)[C@H](O[C@@H]3[C@@H](O)[C@H](N)C[C@H](N)[C@H]3O[C@H]3O[C@H](CN)[C@@H](O)[C@H](O)[C@H]3N)O[C@@H]2CNC(=S)NCCCOCCCCOCCCNC(=S)NCc2ccc3c(c2)C(=O)c2ccccc2C3=O)[C@H](N)[C@@H](O)[C@@H]1O (some centres undefined) | Active | 8.83 | 11.8 | – |
| NCC1O[C@H](O[C@H]2[C@@H](O)[C@H](O[C@@H]3[C@@H](O)[C@H](N)C[C@H](N)[C@H]3O[C@H]3O[C@H](CN)[C@@H](O)[C@H](O)[C@H]3N)O[C@@H]2CNC(=S)NCCNC(=S)NCc2ccc3c(c2)C(=O)c2ccccc2C3=O)[C@H](N)[C@@H](O)[C@@H]1O (some centres undefined) | Active | 4.88 | 3.85 | – |
| O=C1c2ccccc2C(=O)c2ccccc21 | inactive | – | – | – |
| NCC1O[C@H](O[C@H]2[C@@H](O)[C@H](O[C@@H]3[C@@H](O)[C@H](N)C[C@H](N)[C@H]3O[C@H]3O[C@H](CN)[C@@H](O)[C@H](O)[C@H]3N)O[C@@H]2CNC(=S)NCCCCCCCCCCNC(=S)NCc2ccc3c(c2)C(=O)c2ccccc2C3=O)[C@H](N)[C@@H](O)[C@@H]1O (some centres undefined) | Active | – | – | – |
| OCC(F)(F)F | – | – | – | Activity [9]: Active |
| NCC1O[C@H](O[C@H]2[C@@H](O)[C@H](O[C@@H]3[C@@H](O)[C@H](N)C[C@H](N)[C@H]3O[C@H]3O[C@H](CN)[C@@H](O)[C@H](O)[C@H]3N)O[C@@H]2CSCCNC(=S)NCCNC(=S)NCc2ccc3c(c2)C(=O)c2ccccc2C3=O)[C@H](N)[C@@H](O)[C@@H]1O (some centres undefined) | Active | 2.28 | 3.09 | – |
| NCCCNCCCCNCCCN | – | – | – | Activity [6]: Active |
